From patent US12516104B2, “Compositions and methods for diagnosis and treatment of cancer” (BioNTech SE, priority 2018, dated 2026)
Values belong to the substance of their own block, whether it stands above or below them. Ends that are not written are not given here.

What was measured:
FN-6789 = molecular target: T1, FN-6789 (Homo sapiens, UniProt P02751); assay: ELISA specificity: binding of Trx-cystine-knot miniproteins to off-target FN-6789 and control proteins; conditions: for off-target and control protein signals: 200 nM Trx-fusion, FN-6789, milk powder, streptavidin, bovine serum albumin
T1 construct: type III domains 6-9 without EDB (FN-6789); made in house; host or cells: E. coli BL21 (DE3), pET-21a
T1 sequence (P02751 32-2386 isoform P02751-1 limits assumed): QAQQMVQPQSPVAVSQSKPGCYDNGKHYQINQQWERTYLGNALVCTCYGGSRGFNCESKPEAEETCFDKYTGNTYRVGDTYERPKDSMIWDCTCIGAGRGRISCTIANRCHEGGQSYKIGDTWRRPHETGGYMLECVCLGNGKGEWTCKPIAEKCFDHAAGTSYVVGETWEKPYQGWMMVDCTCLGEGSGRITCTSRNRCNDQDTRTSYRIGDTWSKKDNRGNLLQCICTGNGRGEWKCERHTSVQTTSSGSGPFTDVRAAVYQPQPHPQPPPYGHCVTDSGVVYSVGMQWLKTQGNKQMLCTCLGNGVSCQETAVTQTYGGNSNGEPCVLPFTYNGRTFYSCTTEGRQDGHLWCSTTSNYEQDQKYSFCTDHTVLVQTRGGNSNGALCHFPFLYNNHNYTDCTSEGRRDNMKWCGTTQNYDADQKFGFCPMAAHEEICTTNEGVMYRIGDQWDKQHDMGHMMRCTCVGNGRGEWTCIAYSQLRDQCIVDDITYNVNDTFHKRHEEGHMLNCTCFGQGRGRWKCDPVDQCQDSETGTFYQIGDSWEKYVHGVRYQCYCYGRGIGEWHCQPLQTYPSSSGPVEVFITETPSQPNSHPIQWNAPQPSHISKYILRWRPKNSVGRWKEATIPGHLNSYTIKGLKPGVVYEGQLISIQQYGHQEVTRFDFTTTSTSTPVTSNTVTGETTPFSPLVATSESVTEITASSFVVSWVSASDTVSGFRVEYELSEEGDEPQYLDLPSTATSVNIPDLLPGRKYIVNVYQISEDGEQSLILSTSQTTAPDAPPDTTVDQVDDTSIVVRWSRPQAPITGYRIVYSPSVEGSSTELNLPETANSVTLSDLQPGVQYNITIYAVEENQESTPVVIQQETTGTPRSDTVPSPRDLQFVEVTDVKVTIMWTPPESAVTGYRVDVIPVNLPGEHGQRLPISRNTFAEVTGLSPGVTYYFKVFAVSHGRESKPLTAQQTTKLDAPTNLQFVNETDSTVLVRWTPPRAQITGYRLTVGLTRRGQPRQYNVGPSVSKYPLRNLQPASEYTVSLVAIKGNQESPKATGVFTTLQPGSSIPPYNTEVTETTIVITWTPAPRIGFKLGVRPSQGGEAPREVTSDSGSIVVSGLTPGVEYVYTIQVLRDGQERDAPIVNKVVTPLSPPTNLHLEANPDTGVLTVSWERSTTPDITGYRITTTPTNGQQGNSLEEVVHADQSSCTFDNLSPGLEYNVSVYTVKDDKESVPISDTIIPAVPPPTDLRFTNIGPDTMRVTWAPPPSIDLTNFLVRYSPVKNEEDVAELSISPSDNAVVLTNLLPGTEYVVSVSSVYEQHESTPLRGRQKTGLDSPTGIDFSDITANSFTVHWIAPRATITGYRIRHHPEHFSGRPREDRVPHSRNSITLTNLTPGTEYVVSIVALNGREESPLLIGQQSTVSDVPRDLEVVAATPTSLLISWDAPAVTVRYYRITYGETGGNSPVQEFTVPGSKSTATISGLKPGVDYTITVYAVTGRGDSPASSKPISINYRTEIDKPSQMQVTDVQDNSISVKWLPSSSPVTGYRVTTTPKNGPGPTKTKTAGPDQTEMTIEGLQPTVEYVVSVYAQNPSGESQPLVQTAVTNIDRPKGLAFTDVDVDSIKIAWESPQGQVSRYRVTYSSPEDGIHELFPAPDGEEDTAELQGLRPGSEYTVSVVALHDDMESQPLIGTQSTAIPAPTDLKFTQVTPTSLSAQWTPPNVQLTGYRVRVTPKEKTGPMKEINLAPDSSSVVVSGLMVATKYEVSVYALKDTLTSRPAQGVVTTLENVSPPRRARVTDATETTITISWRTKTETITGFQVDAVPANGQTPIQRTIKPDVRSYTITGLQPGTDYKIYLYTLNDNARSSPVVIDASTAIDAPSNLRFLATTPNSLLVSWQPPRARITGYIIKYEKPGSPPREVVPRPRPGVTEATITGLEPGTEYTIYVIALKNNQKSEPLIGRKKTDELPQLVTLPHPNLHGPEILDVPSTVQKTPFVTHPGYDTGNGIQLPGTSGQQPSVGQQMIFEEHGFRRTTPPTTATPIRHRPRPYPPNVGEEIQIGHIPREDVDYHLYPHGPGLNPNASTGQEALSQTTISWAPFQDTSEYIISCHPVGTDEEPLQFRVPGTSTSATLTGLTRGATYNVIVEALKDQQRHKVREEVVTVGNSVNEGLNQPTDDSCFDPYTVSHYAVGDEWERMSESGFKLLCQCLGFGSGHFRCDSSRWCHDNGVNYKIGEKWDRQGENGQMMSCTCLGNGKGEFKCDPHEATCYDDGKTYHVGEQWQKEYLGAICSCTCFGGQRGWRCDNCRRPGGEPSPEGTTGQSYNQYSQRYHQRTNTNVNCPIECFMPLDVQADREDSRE
Procedure: FIG. 4: Specificity analysis of Trx-cystine-knot miniprotein clones MCopt 1.0-1/-2/-3 and MCopt 2.0-1/-2/-3. 200 nM of each variant were applied to immobilized FN-B and FN-67B89 target proteins as well as to control proteins FN-6789, milk powder and bovine serum albumin (coated at 1 μg/well). An HRP-conjugated anti-s-tag antibody was used to analyze binding. ELISA was performed in duplicates with Trx-MC-Myc-010 serving as negative control.
FIG. 5: Extended specificity analysis of Trx-cystine-knot miniprotein clones MCopt 1.0-2/-3 and MCopt 2.0-1/-2/3. In total 200 nM of each variant were applied to FN-B, T7-TEV-B, FN-67B89 and FN-B(8-14) target proteins as well as negative controls FN-6789, milk powder, bovine serum albumin, lysozyme, ovalbumin and aldolase (coated at 1 μg/well). ELISA was performed in duplicates, error bars represent standard deviation and Trx-MC-Myc-010 served as negative cystine-knot miniprotein control.
FIG. 6: Saturation-binding curves of MCopt 1.0-2/-3 and MCopt 2.0-1/-2/-3 EDB binding. Trx-cystine-knot miniprotein binding was assayed against FN-B, FN-67B89 and FN-B(8-14) targets as well as against FN-6789 control protein (coated at 1 μg/well) in ten different concentrations. Binding of Trx-cystine-knot miniproteins was detected with an HRP-conjugated anti-s-tag-antibody. ELISAs were performed in duplicates (single values for FN-B(8-14)). A: from top to bottom SEQ ID NOs: 7, 8, and 12; and B: from top to bottom SEQ ID NOs: 11, 8, and 29.
FIG. 9: A: Specificity analysis of Trx-MC-FN-010 to human FN-67B89 and FN-6789 using ELISA. B: Specificity analysis of Trx-MC-FN-016 to human FN-67B89 and FN-6789 using ELISA. Binding of Trx-MC-FN-010 and Trx-MC-FN-016 to FN-67B89 with concentrations ranging from 1.56-50 nM in comparison to FN-6789 was detected with 50 ng of HRP-conjugated anti-S-tag-antibody. ELISA was performed in duplicates using 1 μg coated FN-67B89 or FN-6789 per well.
ELISA was used as technique to analyze protein-protein interactions. Cavities of 96-well microtiter plates (Nunc MaxiSorp™, Thermo Fisher Scientific) were coated with 1 μg FN-B, bovine serum albumin (BSA, Eurobio), milk powder, streptavidin (Sigma Aldrich), T7-His-TEV-B (LD BioPharma), FN-B(8-14) (R&D Systems), lysozyme, ovalbumin (GE Healthcare Life Science), aldolase (GE Healthcare Life Science) or 0.6 μg anti-c-myc-antibody (M4439, Sigma) overnight at 4° C. The wells were washed three times with PBS-T (1×PBS with 0.1% (w/v) Tween-20), blocked with 1× Casein buffer (Sigma Aldrich) diluted in PBS for 2 h at RT and washed again as described. 20 μL of supernatant containing the respective heat-purified fusion protein was added to 80 μL PBS-T or 200 nM of MC-Myc-010 fusion protein (wells with anti-c-myc-antibody) diluted in PBS-T, applied to the cavities and incubated for 1 h at 4° C. After three times of washing with PBS-T, binding of the respective variant was detected with a horseradish peroxidase (HRP)-conjugated anti-S-tag antibody (ab18589 or ab19324, Abcam). Enzymatic reaction was measured with TMB as a chromogenic substrate and stopped with 0.2 M HCl after approximately 5 min. The measurement of absorbance at 450 nm was performed using an Infinite M200 PRO Microplate Reader (Tecan).

FN-67B89 = molecular target: T2, FN-67B89 (Homo sapiens, UniProt P02751); assay: Surface plasmon resonance spectroscopy on immobilized biotinylated FN-67B89; format: binding; conditions: for off-rates / binding affinity towards biotinylated FN-67B89: tag-free monomer; for binding affinity towards biotinylated FN-67B89: multi cycle kinetic, 1:1 Langmuir
T2 construct: FN-67B89, amino acid G1080-E1455; made in house; host or cells: E. coli BL21 (DE3), pET-21a
T2 sequence (P02751 1080-1546): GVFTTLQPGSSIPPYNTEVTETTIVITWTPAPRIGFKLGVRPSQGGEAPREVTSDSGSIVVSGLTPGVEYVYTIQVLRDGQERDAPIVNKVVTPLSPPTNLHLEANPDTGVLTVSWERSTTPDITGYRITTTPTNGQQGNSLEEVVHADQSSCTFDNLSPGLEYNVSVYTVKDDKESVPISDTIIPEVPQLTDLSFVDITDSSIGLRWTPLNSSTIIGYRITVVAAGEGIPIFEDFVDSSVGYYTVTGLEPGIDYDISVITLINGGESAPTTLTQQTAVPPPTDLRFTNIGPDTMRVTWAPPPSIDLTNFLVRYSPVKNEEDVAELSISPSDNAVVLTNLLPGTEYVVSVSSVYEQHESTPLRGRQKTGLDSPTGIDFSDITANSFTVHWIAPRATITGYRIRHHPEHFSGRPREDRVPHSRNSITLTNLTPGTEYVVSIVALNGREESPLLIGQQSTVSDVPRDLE
Procedure: FIG. 10: A: Kinetic parameters of MC-FN-010 and MC-FN-016 resulting from surface plasmon resonance analysis. Biotinylated human FN-67B89 was immobilized to streptavidin sensor to perform affinity determination of MC-FN-010 and MC-FN-016 using two-fold serial dilutions starting from 4000 nM. Kinetic parameters were calculated using a 1:1 Langmuir fitting model applied to generated sensorgrams. B: Kinetic parameters of AF680-(MC-FN-010)3 and AF680-(MC-FN-016)3 resulting from surface plasmon resonance with single cycle kinetic analysis. Biotinylated human FN-67B89 was immobilized to streptavidin chip to perform binding determination of AF680-(MC-FN-010)3 and AF680-(MC-FN-016)3 using two-fold serial dilution starting from 10 nM. Kinetic parameters were calculated using a 1:1 Langmuir fitting model applied to generated sensorgrams.
FIG. 15: SPR binding analysis of cystine-knot miniprotein variants to EDB. Kinetic parameters of EDB-specific cystine-knot miniprotein variants as measured by surface plasmon resonance analysis and calculated using a 1:1 Langmuir fitting model. Biotinylated human FN-67B89 was immobilized to a streptavidin sensor to determine affinity of DOTA-(MC-FN-016)3 using two-fold serial dilutions.
Binding kinetics of monomeric and trimeric cystine-knot miniprotein ligands to its target protein was determined using a Biacore T-100 device (GE Healthcare Life Science) with PBS-T as running buffer. For this, the biotinylated FN-67B89 protein (200-300 μg/mL) was captured by binding to a flow cell of a SA sensor chip (GE Healthcare Life Science). To analyze monomeric ligands an immobilized target density of maximum 750 response units (RU) was applied and for trimeric variants a RU of maximum 400 was aimed for. Binding analysis of monomeric ligands was performed using a multi cycle kinetic method with concentrations ranging from 50 to 4000 nM. A cycle started with an association period of 90 sec, followed by a dissociation period of 420 sec and a final regeneration step. Kinetic measurement was conducted applying a flow rate of 20 μL/min. Trimeric variants were analyzed under the same association and dissociation conditions, but using the single cycle kinetic measurement mode in a constant flow of […]. In this case the analyte concentration was between 1.25 nM to 10 nM. Binding kinetics and steady state analysis were calculated using a global kinetic fit model (1:1 Langmuir, Biacore T-100 Evaluation Software, GE Healthcare Life Science).

normal mouse brain = assay: Immunofluorescence staining of normal mouse brain sections; format: binding; conditions: biotinylated miniprotein tetramerized with Cy3-labeled streptavidin
Procedure: FIG. 12: Representative immunofluorescence staining of normal mouse brain with EDB ligand MC-FN-010 and negative control MC-FN-0115. Tissue sections (6 μm) were stained with tetramerized cystine-knot miniprotein-biotin/strepatividin-Cy3 complex and an anti-CD31 antibody to visualize vasculature. Scale bars, 100 μm.
(§1) FIG. 13: Specific binding of MC-FN-010 to tissue sections derived from the human U-87 MG glioblastoma cell line grown as mouse xenograft tumor. Representative immunofluorescence staining of U-87 MG tumor tissues (A) and normal mouse brain (B) with trimeric MC-FN-010 and negative control MC-FN-0115. Tissue sections (6 μm) were stained with Alexa Fluor 680 conjugated trimeric cystine-knot miniproteins and an anti-CD31 antibody detected with a secondary antibody to visualize vasculature. […]
(§2) For immunofluorescence staining cryopreserved tumor or brain pieces were cut in five micron thick sections, fixed in ice cold acetone for 5 min and air-dried. […] Images were captured with a Zeiss Apotome microscope (Carl Zeiss) and analyzed with ZEN software (Carl Zeiss).
(§3) Cryopreserved tumor or brain pieces were cut in six micron thick sections, fixed in l ice cold acetone for 5 min and air-dried. […] CD31 staining of primary anti-mouse CD31 antibody was detected with a secondary anti-rabbit IgG-Cy3 antibody (111-165-003, Jackson ImmunoResearch) diluted 1:400 in PBS with 1% BSA for 30 min at 37° C. […]

U-87 MG tumor tissues = assay: Immunofluorescence staining of U-87 MG xenograft tumor sections; format: binding, human; conditions: biotinylated miniprotein tetramerized with Cy3-labeled streptavidin; CD31 co-staining
Procedure: FIG. 8: Specific binding of MC-FN-010 to glioblastoma xenograft tumor sections. Representative results of immunofluorescence staining of U-87 MG tumor tissues with EDB ligand MC-FN-010 and negative control MC-FN-0115. The tissue sections (5 μm) were stained with tetramerized cystine-knot miniprotein-biotin strepatividin-Cy3 complex (red) and with an anti-CD31 antibody to visualize vasculature (green). Scale bars indicate 100 μm.
as §1, with “Representative immunofluorescence staining of U-87 MG tumor tissues (A) and normal mouse brain (B) with trimeric MC-FN-010 and negative control MC-FN-0115.” left out
as §2, §3

Substance: WKCQPTNGYRIRCRRDSDCPGDCICRGNGYCG (cysteine pairing not given here) [MCopt 1.0-2]
off-target and control protein signals (FN-6789): medium to low

Substance: PMCTQRANRIRLCRRDSDCTGACICRGNGYCG [MC-FN-016]
off-rates (FN-67B89): fast
binding affinity towards biotinylated FN-67B89 (FN-67B89): one digit micromolar range

Substance: SVCKQANFVRIRLCRRDSDCPGACICRGNGYCG (cysteine pairing not given here) [MCopt 2.0-3]
off-target and control protein signals (FN-6789): medium to low
background signals / unspecific binding towards FN-6789 off-target (FN-6789; dose-dependent saturation-binding ELISA, compared with EDB containing target proteins): high degree of unspecific binding

Substance: PMCTQRKNRIRLCRRDSDCTGACICRGNGYCG (cysteine pairing not given here) [MC-FN-010]
off-rates (FN-67B89): fast
binding affinity towards biotinylated FN-67B89 (FN-67B89): one digit micromolar range
binding towards FN-67B89 target protein (FN-67B89; tag-free proteins, 50-1000 nM, data not shown): strong binding
off-target and control protein signals (FN-6789): medium to low
fluorescence signal on normal mouse brain section (normal mouse brain): No fluorescence signal

Substance: PMCTQRANRIAACRRDSDCTGACICRGNGYCG (Control peptide) [MC-FN-0115, reference compound]
immunofluorescence staining of U-87 MG tumor sections (U-87 MG tumor tissues): no fluorescence signal at all
fluorescence signal on normal mouse brain section (normal mouse brain): No fluorescence signal

off-target and control protein signals (FN-6789): high interaction
Substance: MCopt 1.0-1: enriched cystine-knot miniprotein clone without the R-I/V-R-(L) motif, SEQ ID NO: 10 (WTCTKKYPNTISCRRDSDCRVTCICRGNGYCG; EDB binding peptide)

Substance: SVCAHYNTIRVRLCRRDSDCPGACICRGNGYCG (cysteine pairing not given here) [MCopt 2.0-2]
off-target and control protein signals (FN-6789): medium to low

Substance: SVCKNVSIMRIRLCRRDSDCPGACICRGNGYCG (cysteine pairing not given here) [MCopt 2.0-1]
off-target and control protein signals (FN-6789): medium to low
